Data taken from patent US20090226907A1, “ASSAY FOR DETECTION OF TELOMERASE ACTIVITY” (Sienna Cancer Diagnostics Limited, priority 2005, published 2009).
{SH-C6} = thiol hexyl linker

Molecular target: T1, telomerase (Homo sapiens, UniProt O14746)
T1 construct: showing the effect of TBT oligonucleotide length in HEK293T cell lysates; endogenous in cells; host or cells: HEK293T cell lysate (CHAPS lysis buffer)
Assay: TBT telomerase assay: effect of oligonucleotide length in HEK293T cell lysates
Type: biochemical
Details: luminescence, compared with short (0.5 repeat) and 2.5 repeat versions, FIG. 16
Source text: FIG. 16 is a graphical representation showing the effect of TBT oligonucleotide length in HEK293T cell lysates. […]

T1 sequence (O14746 whole entry): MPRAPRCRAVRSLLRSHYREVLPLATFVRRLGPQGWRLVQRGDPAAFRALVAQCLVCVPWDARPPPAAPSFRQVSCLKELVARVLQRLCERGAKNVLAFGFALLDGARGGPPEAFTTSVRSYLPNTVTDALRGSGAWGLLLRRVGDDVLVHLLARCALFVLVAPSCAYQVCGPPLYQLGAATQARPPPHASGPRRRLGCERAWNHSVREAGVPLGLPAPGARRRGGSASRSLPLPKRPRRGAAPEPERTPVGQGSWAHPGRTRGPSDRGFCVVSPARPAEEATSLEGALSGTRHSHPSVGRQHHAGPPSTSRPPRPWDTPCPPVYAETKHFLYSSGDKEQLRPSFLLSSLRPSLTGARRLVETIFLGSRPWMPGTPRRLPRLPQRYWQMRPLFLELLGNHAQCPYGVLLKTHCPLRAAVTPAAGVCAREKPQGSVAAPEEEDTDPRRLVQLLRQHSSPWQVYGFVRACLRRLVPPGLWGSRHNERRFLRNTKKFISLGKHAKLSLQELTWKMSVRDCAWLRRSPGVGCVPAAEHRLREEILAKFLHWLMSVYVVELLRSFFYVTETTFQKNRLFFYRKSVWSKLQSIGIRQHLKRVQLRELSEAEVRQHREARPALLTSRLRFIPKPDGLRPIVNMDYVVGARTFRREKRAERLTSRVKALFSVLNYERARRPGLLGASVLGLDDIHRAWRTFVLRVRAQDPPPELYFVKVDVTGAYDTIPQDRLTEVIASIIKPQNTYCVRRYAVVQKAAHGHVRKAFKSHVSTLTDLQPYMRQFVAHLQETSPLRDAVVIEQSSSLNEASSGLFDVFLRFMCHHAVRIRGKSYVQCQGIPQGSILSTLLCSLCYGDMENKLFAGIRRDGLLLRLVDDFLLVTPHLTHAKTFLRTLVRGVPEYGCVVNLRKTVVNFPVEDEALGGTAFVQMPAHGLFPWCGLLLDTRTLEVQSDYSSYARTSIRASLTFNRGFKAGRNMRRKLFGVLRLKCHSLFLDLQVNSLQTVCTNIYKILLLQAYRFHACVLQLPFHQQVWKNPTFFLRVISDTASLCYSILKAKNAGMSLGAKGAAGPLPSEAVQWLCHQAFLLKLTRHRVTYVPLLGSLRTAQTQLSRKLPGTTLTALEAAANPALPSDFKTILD
T1 sequence (O60832 whole entry partner): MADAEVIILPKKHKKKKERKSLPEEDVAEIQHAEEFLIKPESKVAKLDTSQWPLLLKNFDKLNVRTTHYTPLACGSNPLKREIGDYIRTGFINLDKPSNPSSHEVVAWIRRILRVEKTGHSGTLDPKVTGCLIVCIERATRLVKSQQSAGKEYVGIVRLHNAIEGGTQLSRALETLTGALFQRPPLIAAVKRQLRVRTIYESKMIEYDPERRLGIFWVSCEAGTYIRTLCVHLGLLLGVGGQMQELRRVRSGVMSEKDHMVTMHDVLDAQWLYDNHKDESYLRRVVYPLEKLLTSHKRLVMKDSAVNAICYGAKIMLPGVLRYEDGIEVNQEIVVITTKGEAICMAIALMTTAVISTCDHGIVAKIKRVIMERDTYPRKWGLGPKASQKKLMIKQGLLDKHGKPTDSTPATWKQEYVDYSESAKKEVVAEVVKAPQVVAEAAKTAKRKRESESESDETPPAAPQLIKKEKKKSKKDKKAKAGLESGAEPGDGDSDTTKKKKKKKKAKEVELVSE
T1 sequence (Q9NPE3 whole entry partner): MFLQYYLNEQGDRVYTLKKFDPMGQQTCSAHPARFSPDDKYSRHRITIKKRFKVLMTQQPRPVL
T1 sequence (Q9NX24 whole entry partner): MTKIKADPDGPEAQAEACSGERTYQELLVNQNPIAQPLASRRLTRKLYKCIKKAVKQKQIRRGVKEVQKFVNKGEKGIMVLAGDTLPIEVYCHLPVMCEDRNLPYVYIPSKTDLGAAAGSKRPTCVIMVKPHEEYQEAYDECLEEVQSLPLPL
T1 sequence (Q9NY12 whole entry partner): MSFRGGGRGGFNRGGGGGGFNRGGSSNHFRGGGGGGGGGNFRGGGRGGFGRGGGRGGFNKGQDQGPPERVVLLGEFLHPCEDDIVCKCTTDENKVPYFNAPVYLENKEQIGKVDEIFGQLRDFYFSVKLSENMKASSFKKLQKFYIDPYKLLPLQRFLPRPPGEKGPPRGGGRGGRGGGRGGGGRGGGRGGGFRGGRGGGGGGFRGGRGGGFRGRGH
T1 sequence (Q9BUR4 whole entry partner): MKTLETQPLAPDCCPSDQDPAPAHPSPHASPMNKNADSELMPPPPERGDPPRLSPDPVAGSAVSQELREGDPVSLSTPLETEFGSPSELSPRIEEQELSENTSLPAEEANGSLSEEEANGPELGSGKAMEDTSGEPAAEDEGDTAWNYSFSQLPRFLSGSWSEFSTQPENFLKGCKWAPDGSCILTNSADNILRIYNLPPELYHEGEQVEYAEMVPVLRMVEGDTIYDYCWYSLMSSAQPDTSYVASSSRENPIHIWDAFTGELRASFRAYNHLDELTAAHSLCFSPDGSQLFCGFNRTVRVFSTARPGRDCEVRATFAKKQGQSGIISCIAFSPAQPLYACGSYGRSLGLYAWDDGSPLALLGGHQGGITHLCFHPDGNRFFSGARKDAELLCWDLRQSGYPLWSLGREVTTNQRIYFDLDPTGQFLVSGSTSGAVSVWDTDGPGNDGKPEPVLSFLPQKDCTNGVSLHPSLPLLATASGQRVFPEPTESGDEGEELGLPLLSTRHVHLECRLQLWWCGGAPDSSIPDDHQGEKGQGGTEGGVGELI

Substance: 5′SH-(CH2)6-TTTTTTAATCCGTCGAGCAGAGTTAGGGTTAGGGTTAGG GTTAGGGTTAG (DNA TTTTTTAATCCGTCGAGCAGAGTTAGGGTTAGGGTTAGGGTTAGGGTTAG; DNA, 5' {SH-C6}, backbone and methylation of C not given here; bead-immobilized telomerase substrate oligo; listed as Homo sapiens) [longer version]
- absolute signal relative to the background signal (no telomerase extract): better absolute signal relative to the background signal
